The results in this text go back to PubChem BioAssay (NCI).

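48-hour exposure; five concentrations; linearly interpolated endpoints. GI50 = concentration required for 50% inhibition of growth. TGI denotes the concentration required for complete inhibition of growth.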 Some results are limits rather than exact numbers.

Test in all cases: growth of human tumour cells (NCI), 48 h
For assay [1], the system named is 786-0 renal.
The subject of assay [2] is COLO 205 colon.
Assay [3] deals with DU-145 prostate.
Assay [4] deals with HCT-116 colon.
Assay [5] relates to HOP-62 NSCLC.
The subject of assay [6] is LOX IMVI melanoma.
In assay [7] the test system is MDA-MB-231 breast.
Assay [8] relates to NCI-H23 lung.
The test system of assay [9] is NCI-H522 lung.
Assay [10] concerns OVCAR-4 ovarian.

As for `CC1=C(C(=O)Nc2cc(Cl)c3[nH]ncc3c2)C(c2ccc(C(F)(F)F)cc2)CC(=O)N1` (stereo not given), the GI50 in assay [1] is 11.7 µM; in assay [2], 14.8 µM; in assay [3] it was greater than 25 µM; in [4], greater than 22.4 µM; in assay [5], 5.07 µM; in assay [6], greater than 20.4 µM. The GI50 in [7] was 13.7 µM; in assay [8], greater than 25 µM; in assay [9], greater than 18.7 µM; in assay [10] it was greater than 25 µM. Also, the TGI in assay [1], in [2], in [3], in [4], in assay [5] and in assay [6] was greater than 25 µM in each case. Moreover, the TGI in assay [7], in [8], in assay [9] and in [10] was greater than 25 µM each time.

As for `CC(=O)c1c(CO[N+](=O)[O-])n([O-])c2ccccc2[n+]1=O`, the TGI in [1], in assay [2], in assay [3], in assay [4], in assay [5] and in [6] was greater than 100 µM throughout. Moreover, the TGI in assay [7], in assay [8], in [9] and in assay [10] was greater than 100 µM in each case.

On to `Cc1ccc(NC(=O)CSc2nnc3n(Cc4ccccc4)c(=O)c4c(C)c(C(N)=O)sc4n23)cc1`, for which the GI50 in assay [1] was 10 µM; in assay [2] it was 78 µM; in assay [3] it was 60.5 µM; in assay [4], 3.5 µM; in [5] it was 21 µM; in assay [6], greater than 100 µM. The GI50 in [7] is 3.44 µM; in [8], 17.3 µM; in assay [9] it was 3.85 µM; in [10], greater than 100 µM. Also, the TGI in [1] is 49.7 µM; in assay [2] it was greater than 100 µM; in [3] it was greater than 100 µM; in assay [4], greater than 100 µM; in [5], 56 µM; in assay [6] it was greater than 100 µM. Besides, the TGI in [7] was 58.8 µM; in assay [8] it was greater than 100 µM; in assay [9] it was greater than 100 µM; in assay [10], greater than 100 µM.

For the compound `CCOC(=O)c1cc(-c2ccccc2)[nH]c1N/N=C/c1ccc(Cl)cc1`, the GI50 is 50.4 µM in [1]; 42.5 µM in [2]; greater than 100 µM in assay [3]; 47.6 µM in [4]; 87.3 µM in assay [5]; 62.1 µM in assay [6]. Besides, the GI50 was greater than 100 µM in assay [7], 79.1 µM in assay [8], 89.4 µM in assay [9] and 70.9 µM in assay [10]. Besides, the TGI in [1], in [2], in assay [3], in assay [4], in [5] and in [6] was greater than 100 µM throughout. The TGI in assay [7], in assay [8], in assay [9] and in [10] was greater than 100 µM each time.

Take `O=[N+]([O-])c1cc(C(F)(F)F)ccc1Sc1ccc(C(F)(F)F)cc1[N+](=O)[O-]`: the GI50 was greater than 100 µM in assay [1]; 41.8 µM in [2]; 10.6 µM in assay [3]; 3.68 µM in assay [4]; greater than 100 µM in [5]; 3.37 µM in [6]. Further, the GI50 is 5.1 µM in assay [7], 4.62 µM in assay [8], 7.14 µM in assay [9] and 4.05 µM in assay [10]. The TGI in [1], in assay [2], in assay [3], in assay [4], in assay [5] and in assay [6] was greater than 100 µM each time. The TGI is greater than 100 µM in assay [7], greater than 100 µM in assay [8], 82.4 µM in assay [9] and greater than 100 µM in assay [10].

Consider `COc1ccc2c(c1)C(=O)/C(=C/c1ccc([N+](=O)[O-])o1)O2`, for which the GI50 in assay [1] is 1.79 µM; in assay [2], 1.3 µM; in assay [3], 2.05 µM; in assay [4], 0.495 µM; in assay [5], 1.82 µM; in assay [6], 1.4 µM. Besides, the GI50 in assay [7] was 1.41 µM; in [8], 1.8 µM; in [9], 0.527 µM; in assay [10] it was 0.81 µM. The TGI in assay [1] was 3.43 µM; in assay [2], 2.74 µM; in [3], 3.97 µM; in assay [4] it was 1.22 µM; in assay [5], 4.09 µM; in assay [6], 2.86 µM. In addition, the TGI in [7] stood at 3.17 µM; in assay [8] it was 4 µM; in assay [9], 1.05 µM; in [10] it was 2.06 µM.

For `Oc1c(Cl)cc(Cl)cc1C(c1cc(Cl)cc(Cl)c1O)C(Cl)(Cl)Cl`, the GI50 was 2.4 µM in [1]; 1.89 µM in assay [2]; 4.12 µM in assay [3]; 1.32 µM in assay [4]; 3.77 µM in assay [5]; 2.08 µM in [6]. Moreover, the GI50 in assay [7] was 1.59 µM; in [8], 1.45 µM; in assay [9] it was 0.964 µM; in assay [10] it was 3.21 µM. The TGI in assay [1] came out at 7.45 µM; in [2] it was 4.76 µM; in [3] it was 15.7 µM; in assay [4], 3.67 µM; in [5], 15 µM; in [6] it was 5.57 µM. For the same compound, the TGI stood at 4.81 µM in assay [7], 5.15 µM in [8], 26.7 µM in assay [9] and 19 µM in assay [10].
